Results on three molecules are retold here after patent US5208032A, “Increasing the growth of turkeys using implant of 19-nortestosterone” (Rutgers, The State University of New Jersey, priority 1992, dated 1993).

Structures are written as SMILES.

One test relates to testosterone antiserum. As to the kind of experiment: Radioimmunoassay for testosterone: antiserum cross-reaction and inhibition of binding. The arrangement: species or system rabbits. The following applies: standard curve. The procedure:
Plasma concentrations of testosterone were assayed using component kits from Immuchem Corporation (Carson, Calif.) in which charcoal-stripped chicken plasma (free of testosterone) was used to make up the standards. The antibody is covalently bound to the inner surface of each polypropylene tube (testosterone-19-carboxymethylether-BSA was the antigen used to generate the antiserum in rabbits). To these tubes (at room temperature), a 50 microliter volume of either standard or unknown plasma as added directly without extraction. Following this, a 1000-microliter volume (^~ 40,000 cpm) of ^125 I-testosterone (purified by HPLC and radio-iodinated at position 19; Immuchem Corp.) in phosphosaline buffer-gelatin (pH 7.0) was added and the mixture was vortex mixed briefly. After a 2 hour incubation at room temperature, tubes were placed into styrofoam holding racks and the supernatant decanted onto tin trays lined with newspapers. Residual supernatant left on inside walls of tubes was removed by everting styrofoam holding racks and impacting them onto dry absorbent paper towels. At this point, the assay tubes, with their wall bound antibody-antigen complexes, were counted on a Beckman 5500 gamma counter to determine the radioactivity (^125 I-testosterone) which was antibody-bound. The plasma concentrations of testosterone in unknown samples were determine based on the standards (from 0.10-10 ng/ml) in charcoal-stripped chicken plasma included with each assay.
The Immuchem testosterone antiserum cross-reacts 100% with testosterone, 7.8% with 5-alpha-DHT, 0.56% with 4-adrosten-3,17-dione, and less than 0.01% with 5-alpha-androstane-3-alpha,17-beta-diol and estrogens (manufacturer statement). […] The mean between-assay CV for low and high plasma pools was less than 11.0% (n=5).

The nature of test [1]: Growth of castrate male turkeys implanted with 19-nortestosterone (Study III, Table V). In kind it is in vivo, Large White Nicholas turkeys. The following applies: castrated male, 5-cm capsule. The procedure:
The same large white strain of turkey (received 1 day posthatching from Nicholas Breeding Farms, CA) was used in all studies. Poults were reared in deep litter brooder pens from 1 day posthatch and exposed to constant light until initiation of Studies I and III or through completion in the case of Study II. Studies I and III were conducted in an environmentally controlled room (photoperiod 12L:12D) with birds housed individually in wire-floored layer cages (space dimensions of 0.31 W×0.46 L×0.53 H meters per cage). Water and feed (Agway Game and Turkey Starter Crumbles) was available at all times. Turkeys were rank ordered by weight and distributed into treatment groups of equal mean body weights at the start of each Study (I, II and III).
Body weight determinations were made at the second and final week of each study, and several organs and tissues were excised and immediately weighed at the time of necropsy. Final shank-toe length, as an indicator of skeletal growth, was also determined. Birds were sacrificed via exanguination by laceration of the jugular vein. Specific details on the experimental design and conduct of each turkey study will follow.
Male and female turkeys were either sham-operated or castrated (Quigley, 1962) at 4 weeks of age in the same manner as previously described for chickens. However, due to the small size and extremely viscous nature of the turkey testicle at 2 weeks of age, birds were castrated at 4 weeks of age. […] This was important since when a portion of the testicle is left behind or dropped back inside the body cavity after having been torn loose, the bird will become what is called in the poultry industry, a "slip".
Pre- (4 weeks) and post-surgically (1 week), birds were floor-reared together on pine shavings. At 5 weeks of age, birds were transferred to individual layer cages (dimensions as in Study I) in an environmentally controlled animal room. One week later (6 weeks of age), birds were assigned to 4 groups (9 birds/group). Group 1 was composed of intact males (sham-operated); Group 2, intact females (sham-operated); Group 3, castrated males implanted that same day with cholesterol-filled Silastic polysiloxane capsules (5.0-cm); and Group 4, castrated males implanted that same day with 19-nortestosterone-filled Silastic polysiloxane capsules (5.0-cm). Castrated males were rank ordered by weight prior to group assignment. Male and female groups were composed of birds which had the intermediate body weights from a pool of 15 birds for each sex. Birds were randomized (planned) into cages among tiers (5 cages per tier) and racks, similar to that of Study I, in order to eliminate any rack (4) or tier (3 vertical) effects within the room. Birds served as individual treatment units for all parameters measured including feed consumption (i.e., supplied with individual box-type feeders) and were placed into every other cage starting on the top tier in rack 1.

The subject of test [2] is 5-alpha-DHT anti-serum. The settings on record: antibody provided by Dr. Alan L. Johnson; cited from earlier work.
For test [3], the system named is 5-alpha-DHT anti-serum. As to the kind of experiment: Radioimmunoassay for 5-alpha-DHT: antiserum reaction and inhibition of binding. The following applies: standard curve. The procedure:
The following will briefly outline the procedure used for determination of plasma concentration of 5-alpha-DHT. The 5-alpha-DHT anti-serum (Ford's-F/1) was kindly provided by Dr. Alan L. Johnson, Rutgers University, New Brunswick, N.J. This antibody reacted 100% to 5-alpha-DHT,7.9% to testosterone and 11.4% to androstenedione. The antibody was diluted to 1:20,000 in PBSG and stored at 4° C. until added to assay that same day.
5-alpha-Dihydrotestosterone was extracted from plasma ([…]) using benzene:toluene (2:1), with an extraction efficiency of 83.4±6.4 (SD) %. Since further purification of the crude sample extract (i.e., by column chromatography) was not performed, it became necessary to also add extracts from steroid free plasma (i.e., stripped by dextran-coated charcoal) to the standard curve tubes prior to the addition of the different doses of the standard 5-alpha-DHT solutions (3.125 to 1600 pg). […] Following the drying process (Savant-high speed concentrator), 200 microliters 5-alpha-DHT anti-serum solution wwere added to each standard or unknown. After brief vortex mixing, 200 microliters of [1,2,3,7^-3 H] 5-alpha-DHT (^~ 10,000 cpm) was added to each tube and the mixture allowed to incubate overnight at 4° C. The antibody-hormone-bound fraction was separated from the non-bound fraction using a charcoal-dextran suspension. Radioactivity of the bound fraction was measured using a liquid scintillation counter. The percentage bound of the standards was plotted against the log of the hormone concentration to yield a standard curve. Potency estimates of the unknowns were calculated from this standard curve.
Sensitivity of the assay was less than 50.0 pg/ml, while the mean within-assay CV for the low (37.7 pg/ml for plasma stripped and pooled from 3 adult male White Leghorn chickens) and high (265 pg/ml for plasma pooled and not stripped from 3 adult male White Leghorn chickens) plasma pools (n=5) wwas less than 9.4%. The mean between-assay CV for the low and high plasma pools was less than 12.9% (n=7).

Where [4] appears, read: change vs castrated control, unsigned (increase).

In the case of `C[C@]12CC[C@H]3[C@@H](CCC4=CC(=O)CC[C@@]43C)[C@@H]1CC[C@@H]2O` [Testosterone, testosterone], in the test on testosterone antiserum (n=5), the “80 percent inhibition of binding” value is 462.5±1.5 pg/tube and the “Twenty percent inhibition of binding” value is 15.8±1.7 pg/tube. In addition, in the test with testosterone antiserum (n=5, 1.95 pg to 500 pg), the “50 percent inhibition of binding” value came to 78.8±9.6 pg/tube.
As for `C[C@]12CC[C@H]3[C@@H](CCC4=CC(=O)CC[C@@H]43)[C@@H]1CC[C@@H]2O` [19-Nortestosterone, 19-nortestosterone], in test [1], the “Abdominal Adipose” value stood at 4.92 ± 0.91, the “Average Daily Gain” value is 106 ± 3 g, the “Feed/Gain Ratio” value was found to be 1.86 ± 0.05 and the “Final 9-Week Body Weight” value was found to be 3643 ± 64 g. For the same molecule, in test [1], the “Final 9-Week Shank-Toe Length” value is listed as 21.44 ± 0.18 cm and the “Right Breast Muscle” value is recorded as 303 ± 13 g. Besides, in test [1] (change vs castrated control, unsigned (decrease)), the “Abdominal Adipose (%)” value is 65.6%. In test [1] (setting [4]), the “Average Daily Gain (%)” value is reported as 16.5%, the “Final 9-Week Body Weight (%)” value worked out at 5.9% and the “Right Breast Muscle (%)” value amounted to 14.8%. Also, the “Feed Efficiency” value in test [1] (change vs castrated control, column head prints (g), cells %) turned out to be 16.6%.
For the molecule `C[C@]12CCC(=O)C[C@@H]1CC[C@@H]1[C@@H]2CC[C@]2(C)[C@@H](O)CC[C@@H]12` [5-alpha-DHT, 5-alpha-dihydrotestosterone], in the test with 5-alpha-DHT anti-serum [2], the “reaction with 5-alpha-DHT anti-serum (Ford's-F/1)” value was 100%. For the same molecule, in the test on 5-alpha-DHT anti-serum [3] (n=7), the “80 percent inhibition of binding” value was 321.4±31.9 pg/tube and the “Twenty percent inhibition of binding” value worked out at 16.9±2.1 pg/tube. The “50 percent inhibition of binding” value with 5-alpha-DHT anti-serum [3] (n=7, 3.125 to 1600 pg) was found to be 67.4±8.2 pg/tube.
